# Like-named read-outs stand apart in the source and are kept apart here.
# Columns and labels:
# JH2 domain of human Tyk2 = JH2 domain of human Tyk2 (Homo sapiens (Human), UniProt P29597); assay: JH2 Biochemical Assay (TR-FRET probe displacement); format: binding
# JAK1 = JAK1 (Homo sapiens (Human), UniProt P23458); assay: pSTAT3 Cell Assay (MSD, TF1 cells); format: cell-based; settings: IL-6 stimulated
# Procedure: The inhibitory potency of compounds of the disclosure against the JAK1 kinase activity on STAT3 was evaluated using an MSD-platform plate-based assay format. TF1 cells natively expressing STAT3 and JAK1 were serum-starved to reduce background phosphorylation levels, then cells were treated with compounds of the disclosure for 1 hour with a 10-point four-fold dilution series starting at 10 μM. Cells were then stimulated with 30 ng/mL interleukin 6 (IL-6) for 15 minutes. Cells were lysed and pSTAT3 levels were quantitated using an MSD plate-based assay with anti-STAT3 antibodies. The data were normalized and the percent activity versus log concentration of compound was fitted with a 4-parameter logistic model to generate IC50 curves.
# Tyk2 = Tyk2 (Homo sapiens (Human), UniProt P29597); assay: pSTAT4 Cell Assay (MSD, NK92 cells); format: cell-based
# Sequence of Tyk2 (P29597 whole entry, the tested form may be a part): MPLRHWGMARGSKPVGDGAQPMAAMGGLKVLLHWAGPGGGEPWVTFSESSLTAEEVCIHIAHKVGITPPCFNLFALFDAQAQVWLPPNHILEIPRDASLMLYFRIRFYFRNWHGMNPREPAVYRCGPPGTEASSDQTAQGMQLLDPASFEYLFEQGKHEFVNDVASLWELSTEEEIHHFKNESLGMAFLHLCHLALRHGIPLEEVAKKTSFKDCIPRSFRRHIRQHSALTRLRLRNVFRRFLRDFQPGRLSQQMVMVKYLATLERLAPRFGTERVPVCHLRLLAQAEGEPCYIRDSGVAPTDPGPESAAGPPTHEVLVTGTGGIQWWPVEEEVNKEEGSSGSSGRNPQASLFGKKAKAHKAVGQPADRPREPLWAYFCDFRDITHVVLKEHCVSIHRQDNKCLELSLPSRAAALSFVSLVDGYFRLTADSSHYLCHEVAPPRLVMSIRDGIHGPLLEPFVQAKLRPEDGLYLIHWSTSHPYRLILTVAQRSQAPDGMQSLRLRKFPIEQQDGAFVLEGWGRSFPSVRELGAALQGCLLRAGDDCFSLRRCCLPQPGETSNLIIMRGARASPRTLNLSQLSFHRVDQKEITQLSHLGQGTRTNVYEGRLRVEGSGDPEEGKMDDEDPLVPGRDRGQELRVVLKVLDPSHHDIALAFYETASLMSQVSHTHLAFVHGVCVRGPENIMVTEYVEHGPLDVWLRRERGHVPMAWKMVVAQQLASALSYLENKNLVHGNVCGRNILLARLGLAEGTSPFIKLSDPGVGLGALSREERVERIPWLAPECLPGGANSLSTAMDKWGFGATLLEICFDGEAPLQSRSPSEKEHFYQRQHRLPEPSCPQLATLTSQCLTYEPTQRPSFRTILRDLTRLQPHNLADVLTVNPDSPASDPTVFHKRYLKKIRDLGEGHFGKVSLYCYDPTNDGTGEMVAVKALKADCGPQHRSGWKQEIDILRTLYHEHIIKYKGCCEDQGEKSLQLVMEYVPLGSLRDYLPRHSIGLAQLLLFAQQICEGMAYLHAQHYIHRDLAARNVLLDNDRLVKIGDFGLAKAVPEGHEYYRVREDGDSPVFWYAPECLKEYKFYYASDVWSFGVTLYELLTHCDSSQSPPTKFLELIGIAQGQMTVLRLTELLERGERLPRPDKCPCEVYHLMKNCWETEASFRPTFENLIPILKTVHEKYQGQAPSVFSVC
# [1] = TR-FRET probe displacement, JH2 domain
# [2] = JH2 domain of human Tyk2, TR-FRET probe displacement
# [3] = TR-FRET probe displacement, JH2 domain of human Tyk2
# Sequence of JH2 domain of human Tyk2 (P29597 575-876): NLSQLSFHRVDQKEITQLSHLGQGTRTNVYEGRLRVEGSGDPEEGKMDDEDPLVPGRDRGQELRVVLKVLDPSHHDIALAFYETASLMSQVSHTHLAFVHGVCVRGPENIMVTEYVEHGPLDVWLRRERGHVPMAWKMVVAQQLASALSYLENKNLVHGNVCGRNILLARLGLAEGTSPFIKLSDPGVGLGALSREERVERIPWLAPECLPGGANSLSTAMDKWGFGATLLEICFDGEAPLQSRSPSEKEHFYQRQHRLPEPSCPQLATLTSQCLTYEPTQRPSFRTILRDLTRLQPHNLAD
# Sequence of JAK1 (P23458 whole entry): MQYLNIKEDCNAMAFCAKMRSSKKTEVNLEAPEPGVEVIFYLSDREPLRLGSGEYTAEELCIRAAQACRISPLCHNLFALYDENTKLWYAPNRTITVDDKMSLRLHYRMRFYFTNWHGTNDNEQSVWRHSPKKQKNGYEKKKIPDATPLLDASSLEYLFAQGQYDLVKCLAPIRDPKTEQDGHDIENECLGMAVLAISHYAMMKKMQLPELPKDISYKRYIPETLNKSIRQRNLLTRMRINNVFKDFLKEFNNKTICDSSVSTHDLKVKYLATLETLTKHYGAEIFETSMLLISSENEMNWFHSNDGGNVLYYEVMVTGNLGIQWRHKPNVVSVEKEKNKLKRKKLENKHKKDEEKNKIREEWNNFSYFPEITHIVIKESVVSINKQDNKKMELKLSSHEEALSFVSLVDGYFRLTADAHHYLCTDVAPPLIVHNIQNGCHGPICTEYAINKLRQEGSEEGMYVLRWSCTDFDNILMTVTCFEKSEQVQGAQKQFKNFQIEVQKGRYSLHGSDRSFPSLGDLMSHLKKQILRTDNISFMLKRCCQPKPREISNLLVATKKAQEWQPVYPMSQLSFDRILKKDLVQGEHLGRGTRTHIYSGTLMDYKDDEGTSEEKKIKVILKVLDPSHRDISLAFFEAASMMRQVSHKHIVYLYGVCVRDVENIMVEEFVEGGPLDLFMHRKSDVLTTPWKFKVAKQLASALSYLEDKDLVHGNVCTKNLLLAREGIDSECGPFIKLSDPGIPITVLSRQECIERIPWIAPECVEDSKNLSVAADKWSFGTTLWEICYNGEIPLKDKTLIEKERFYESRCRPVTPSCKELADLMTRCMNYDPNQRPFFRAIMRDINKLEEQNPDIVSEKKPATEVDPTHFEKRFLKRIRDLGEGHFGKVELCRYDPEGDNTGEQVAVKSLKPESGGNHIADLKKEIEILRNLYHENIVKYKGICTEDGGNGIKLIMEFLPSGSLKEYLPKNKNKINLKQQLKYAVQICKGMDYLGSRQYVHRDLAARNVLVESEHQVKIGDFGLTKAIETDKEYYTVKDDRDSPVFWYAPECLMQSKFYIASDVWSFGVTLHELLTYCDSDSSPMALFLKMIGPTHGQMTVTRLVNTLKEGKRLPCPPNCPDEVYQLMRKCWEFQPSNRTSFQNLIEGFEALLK
Structure (SMILES),IC50 (Tyk2; MSD) [nM],IC50 (JH2 domain of human Tyk2; [2]) [nM],IC50 (JH2 domain of human Tyk2; [3]) [nM],also measured
"CC(=O)Nc1cc(Nc2ccnc(C(C)(F)F)n2)c(-c2ccc(CN3CCOC[C@@H]3C)cn2)cn1 [Example 892, (S)-N-(4′-((2-(1,1-difluoroethyl)pyrimidin-4-yl)amino)-5-((3-methylmorpholino)methyl)-[2,3′-bipyridin]-6′-yl)acetamide]",–,–,–,IC50 (JH2 domain of human Tyk2; [1]): ≤ 10 nM; IC50 (JAK1): ≥ 1000 nM; IC50 (Tyk2): ≤ 10 nM
"CNc1ccc(-c2cnc(NC(C)=O)cc2Nc2ccnc(C(C)(F)F)n2)nc1 [Example 857, N-(4′-((2-(1,1-difluoroethyl)pyrimidin-4-yl)amino)-5-(methylamino)-[2,3′-bipyridin]-6′-yl)acetamide]",–,–,–,IC50 (JH2 domain of human Tyk2; [1]): ≤ 10 nM; IC50 (JAK1): ≥ 1000 nM; IC50 (Tyk2): ≤ 10 nM
"CC(=O)Nc1cc(Nc2cc(C)nc(C(C)(F)F)n2)c(-c2ccc(N3CCN(C)CC3)cn2)cn1 [Example 651, N-(4′-((2-(1,1-difluoroethyl)-6-methylpyrimidin-4-yl)amino)-5-(4-methylpiperazin-1-yl)-[2,3′-bipyridin]-6′-yl)acetamide]",≤ 10,–,–,IC50 (JAK1; MSD): ≥ 1000 nM
"[2H]C([2H])([2H])C(=O)Nc1cc(Nc2ccnc(C(C)(F)F)n2)c(-c2ccc(OC)nn2)cn1 [Example 527, N-(4-((2-(1,1-difluoroethyl)pyrimidin-4-yl)amino)-5-(6-methoxypyridazin-3-yl)pyridin-2-yl)acetamide-2,2,2-d3]",≤ 10,≤ 10,–,–
"CC(=O)Nc1cc(Nc2cc(C)nc(C(C)(F)F)n2)c(-c2cc(C(C)N(C)C)ccn2)cn1 (stereo not drawn) [Example 743, N-(4′-((2-(1,1-difluoroethyl)-6-methylpyrimidin-4-yl)amino)-4-(1-(dimethylamino)ethyl)-[2,3′-bipyridin]-6′-yl)acetamide]",10 to 100,≤ 10,–,–
"COC1(COc2cnc(NC(C)=O)cc2Nc2cc(C)nc(C(C)(F)F)n2)CCOCC1 [Example 337, N-(4-((2-(1,1-difluoroethyl)-6-methylpyrimidin-4-yl)amino)-5-((4-methoxytetrahydro-2H-pyran-4-yl)methoxy)pyridin-2-yl)acetamide]",10 to 100,–,≤ 10,–
"COc1cc(-c2cnc(NC(C)=O)cc2Nc2cc(C)nc(C(C)(C)F)n2)ncn1 [Example 196, N-(4-((2-(2-fluoropropan-2-yl)-6-methylpyrimidin-4-yl)amino)-5-(6-methoxypyrimidin-4-yl)pyridin-2-yl)acetamide]",10 to 100,–,≤ 10,–
"CC(=O)Nc1cc(Nc2cc(C)nc(C(C)(F)F)n2)c(OCC2CCC2)cn1 [Example 62, N-(5-(cyclobutylmethoxy)-4-((2-(1,1-difluoroethyl)-6-methylpyrimidin-4-yl)amino)pyridin-2-yl)acetamide]",10 to 100,–,≤ 10,–
"CC(=O)Nc1cc(Nc2cc(C)nc(C(C)(F)F)n2)c(OCC2CC3(CCC3)CO2)cn1 (stereo not drawn) [Example 433, N-(5-((6-oxaspiro[3.4]octan-7-yl)methoxy)-4-((2-(1,1-difluoroethyl)-6-methylpyrimidin-4-yl)amino)pyridin-2-yl)acetamide]",≤ 10,≤ 10,–,–
"COc1nccc(-c2cnc(NC(C)=O)cc2Nc2ccnc(C(C)(C)F)n2)n1 [Example 180, N-(4-((2-(2-fluoropropan-2-yl)pyrimidin-4-yl)amino)-5-(2-methoxypyrimidin-4-yl)pyridin-2-yl)acetamide]",≤ 10,–,≤ 10,–
"CCc1cc(Nc2cc(NC(C)=O)ncc2-c2ncc(F)cn2)nc(C(C)(F)F)n1 [Example 183, N-(4-((2-(1,1-difluoroethyl)-6-ethylpyrimidin-4-yl)amino)-5-(5-fluoropyrimidin-2-yl)pyridin-2-yl)acetamide]",10 to 100,–,≤ 10,–
"CCc1cc(Nc2cc(NC(C)=O)ncc2-c2cnccn2)nc(C(C)(F)F)n1 [Example 823, N-(4-((2-(1,1-difluoroethyl)-6-ethylpyrimidin-4-yl)amino)-5-(pyrazin-2-yl)pyridin-2-yl)acetamide]",–,–,–,IC50 (JH2 domain of human Tyk2; [1]): ≤ 10 nM; IC50 (Tyk2): 10 to 100 nM
"CC(=O)Nc1cc(Nc2cc(C)nc(C(C)(F)F)n2)c(OCC2CN(C(C)C)CCO2)cn1 (stereo not drawn) [Example 503, N-(4-((2-(1,1-difluoroethyl)-6-methylpyrimidin-4-yl)amino)-5-((4-isopropylmorpholin-2-yl)methoxy)pyridin-2-yl)acetamide]",10 to 100,≤ 10,–,–
"CCc1cc(Nc2cc(NC(C)=O)ncc2-c2cnc(C#N)cn2)nc(C(C)(F)F)n1 [Example 864, N-(5-(5-cyanopyrazin-2-yl)-4-((2-(1,1-difluoroethyl)-6-ethylpyrimidin-4-yl)amino)pyridin-2-yl)acetamide]",–,–,–,IC50 (JH2 domain of human Tyk2; [1]): ≤ 10 nM; IC50 (Tyk2): 10 to 100 nM
"COc1cnc(NC(C)=O)cc1Nc1cc(-c2cnn(C3CCC3)c2)nc(C(C)(F)F)n1 [Example 374, N-(4-((6-(1-cyclobutyl-1H-pyrazol-4-yl)-2-(1,1-difluoroethyl)pyrimidin-4-yl)amino)-5-methoxypyridin-2-yl)acetamide]",100 to 1000,10 to 100,–,–
"COCc1nsc(-c2cnc(NC(C)=O)cc2Nc2cc(C)nc(C(C)(F)F)n2)n1 [Example 762, N-(4-((2-(1,1-difluoroethyl)-6-methylpyrimidin-4-yl)amino)-5-(3-(methoxymethyl)-1,2,4-thiadiazol-5-yl)pyridin-2-yl)acetamide]",–,–,–,IC50 (JH2 domain of human Tyk2; [1]): ≤ 10 nM; IC50 (Tyk2): ≤ 10 nM
"CC(=O)Nc1cc(Nc2cc(C)nc(C(C)(F)F)n2)c(-c2cc(CN3CCCC3)ccn2)cn1 [Example 805, N-(4′-((2-(1,1-difluoroethyl)-6-methylpyrimidin-4-yl)amino)-4-(pyrrolidin-1-ylmethyl)-[2,3′-bipyridin]-6′-yl)acetamide]",–,–,–,IC50 (JH2 domain of human Tyk2; [1]): ≤ 10 nM; IC50 (Tyk2): 10 to 100 nM
"CCc1cc(Nc2cc(NC(C)=O)ncc2-c2ccn(C)n2)nc(C(C)(F)F)n1 [Example 204, N-(4-((2-(1,1-difluoroethyl)-6-ethylpyrimidin-4-yl)amino)-5-(1-methyl-1H-pyrazol-3-yl)pyridin-2-yl)acetamide]",≤ 10,–,≤ 10,–
"C=C(F)c1cncc(Nc2cc(NC(C)=O)ncc2OCCOC)n1 [Example 90, N-(4-((6-(1-fluorovinyl)pyrazin-2-yl)amino)-5-(2-methoxyethoxy)pyridin-2-yl)acetamide]",100 to 1000,–,≤ 10,–
"COc1cc(-c2cnc(NC(C)=O)cc2Nc2ccnc(C(C)(F)F)c2)ncn1 [Example 217, N-(4-((2-(1,1-difluoroethyl)pyridin-4-yl)amino)-5-(6-methoxypyrimidin-4-yl)pyridin-2-yl)acetamide]",≥ 1000,–,10 to 100,–
"CCOc1cnc(NC(C)=O)cc1Nc1cc(O[C@H]2C[C@@H](F)C2)nc(C(C)(F)F)n1 [Example 458, N-(4-((2-(1,1-difluoroethyl)-6-((1s,3s)-3-fluorocyclobutoxy)pyrimidin-4-yl)amino)-5-ethoxypyridin-2-yl)acetamide]",≤ 10,≤ 10,–,–
"CC(=O)Nc1cc(Nc2cc(C)nc(C(C)(F)F)n2)c(OCC2CCCO2)cn1 (stereo not drawn) [Example 481, N-(4-((2-(1,1-difluoroethyl)-6-methylpyrimidin-4-yl)amino)-5-((tetrahydrofuran-2-yl)methoxy)pyridin-2-yl)acetamide]",10 to 100,≤ 10,–,–
"COC(C)c1ccc(-c2cnc(NC(C)=O)cc2Nc2cc(C)nc(C34COC(C3)C4)n2)nc1 (stereo not drawn) [Example 575, N-(4′-((2-(2-oxabicyclo[2.1.1]hexan-4-yl)-6-methylpyrimidin-4-yl)amino)-5-(1-methoxyethyl)-[2,3′-bipyridin]-6′-yl)acetamide]",≤ 10,≤ 10,–,–
"CCOc1cnc(NC(C)=O)cc1Nc1cc(-c2cnn(C3CCC3)c2)nc(C(C)(F)F)n1 [Example 312, N-(4-((6-(1-cyclobutyl-1H-pyrazol-4-yl)-2-(1,1-difluoroethyl)pyrimidin-4-yl)amino)-5-ethoxypyridin-2-yl)acetamide]",≤ 10,–,≤ 10,–
"CC(=O)Nc1cc(Nc2cc(C)nc(C(C)(F)F)n2)c(OCc2cnoc2)cn1 [Example 504, N-(4-((2-(1,1-difluoroethyl)-6-methylpyrimidin-4-yl)amino)-5-(isoxazol-4-ylmethoxy)pyridin-2-yl)acetamide]",10 to 100,≤ 10,–,–
"COC1(C)CN(c2cnc(-c3cnc(NC(C)=O)cc3Nc3ccnc(C(C)(F)F)n3)cn2)C1 [Example 868, N-(4-((2-(1,1-difluoroethyl)pyrimidin-4-yl)amino)-5-(5-(3-methoxy-3-methylazetidin-1-yl)pyrazin-2-yl)pyridin-2-yl)acetamide]",–,–,–,IC50 (JH2 domain of human Tyk2; [1]): ≤ 10 nM; IC50 (Tyk2): 10 to 100 nM
"CC(=O)Nc1cc(Nc2cc(C)nc(C(C)(F)F)n2)c(-c2ncc(Cl)cn2)cn1 [Example 669, N-(5-(5-chloropyrimidin-2-yl)-4-((2-(1,1-difluoroethyl)-6-methylpyrimidin-4-yl)amino)pyridin-2-yl)acetamide]",10 to 100,≤ 10,–,–
"COc1ccc(-c2cnc(NC(C)=O)cc2Nc2cccc(C(C)(F)F)n2)nn1 [Example 526, N-(4-((6-(1,1-difluoroethyl)pyridin-2-yl)amino)-5-(6-methoxypyridazin-3-yl)pyridin-2-yl)acetamide]",10 to 100,≤ 10,–,–
"COC(=O)Nc1cc(Nc2cc(OC3CC3)nc(C(C)(F)F)n2)c(OCCN(C)C)cn1 [Example 447, methyl (4-((6-cyclopropoxy-2-(1,1-difluoroethyl)pyrimidin-4-yl)amino)-5-(2-(dimethylamino)ethoxy)pyridin-2-yl)carbamate]",10 to 100,≤ 10,–,–
